Experimental data: paper PMC11597374, “Synthesis, Characterizations, Anti-Diabetic and Molecular Modeling Approaches of Hybrid Indole-Oxadiazole Linked Thiazolidinone Derivatives” (Pharmaceuticals, 2024)

Experiments:
α-glucosidase = α-glucosidase (Saccharomyces cerevisiae, UniProt P53341); test: Alpha-glucosidase inhibition assay; assay type: biochemical; details: standard acarbose
From the text: (§1) In order to obtain biological profiles, all the derivatives were screened against enzymes α-amylase along and α-glucosidase.

α-amylase = molecular target: T1, α-amylase (Sus scrofa, UniProt P00690); test: Alpha-amylase activity assay (starch, DNS, 540 nm); assay type: biochemical; details: standard acarbose
T1 sequence (P00690 16-511): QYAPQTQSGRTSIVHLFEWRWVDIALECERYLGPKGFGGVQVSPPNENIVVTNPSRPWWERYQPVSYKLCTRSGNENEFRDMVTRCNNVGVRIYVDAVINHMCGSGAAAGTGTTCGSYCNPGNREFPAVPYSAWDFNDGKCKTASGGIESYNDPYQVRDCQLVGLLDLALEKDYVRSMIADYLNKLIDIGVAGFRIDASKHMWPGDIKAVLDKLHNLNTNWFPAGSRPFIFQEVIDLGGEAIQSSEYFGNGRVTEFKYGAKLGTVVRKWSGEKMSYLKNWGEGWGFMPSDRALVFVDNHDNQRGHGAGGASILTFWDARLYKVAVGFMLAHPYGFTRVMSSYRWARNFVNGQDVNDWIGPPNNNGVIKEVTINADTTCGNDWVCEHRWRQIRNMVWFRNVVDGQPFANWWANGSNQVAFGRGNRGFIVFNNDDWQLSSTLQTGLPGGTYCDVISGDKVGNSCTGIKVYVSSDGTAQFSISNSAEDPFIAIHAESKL
From the text: as §1

α-glucosidase, sequence (P53341 whole entry): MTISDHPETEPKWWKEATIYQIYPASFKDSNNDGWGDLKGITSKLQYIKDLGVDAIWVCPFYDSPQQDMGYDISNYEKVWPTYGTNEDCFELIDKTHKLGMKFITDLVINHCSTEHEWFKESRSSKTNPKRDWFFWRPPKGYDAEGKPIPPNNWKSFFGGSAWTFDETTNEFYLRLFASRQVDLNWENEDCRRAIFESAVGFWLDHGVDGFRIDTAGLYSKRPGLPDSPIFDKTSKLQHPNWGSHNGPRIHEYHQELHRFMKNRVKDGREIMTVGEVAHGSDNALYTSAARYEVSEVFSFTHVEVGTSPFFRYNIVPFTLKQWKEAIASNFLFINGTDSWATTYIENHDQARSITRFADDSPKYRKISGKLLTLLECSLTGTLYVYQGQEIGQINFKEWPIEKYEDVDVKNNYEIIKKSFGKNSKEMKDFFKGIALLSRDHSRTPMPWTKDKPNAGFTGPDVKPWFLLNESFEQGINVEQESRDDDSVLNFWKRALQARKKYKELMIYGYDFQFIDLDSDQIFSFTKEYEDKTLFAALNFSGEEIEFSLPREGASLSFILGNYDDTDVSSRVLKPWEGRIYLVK

For `O=C1CS/C(=N\c2nnc(CC(c3c[nH]c4ccccc34)C(F)(F)F)o2)N1c1cccc(Oc2ccccc2)c1` (centres unmarked) [Compound 14], the “Alpha Glucosidase IC50” value (α-glucosidase) was “non-active” and the “Alpha Amylase IC50” value (α-amylase) was “non-active”.
